From ChEMBL document CHEMBL4190308, “Drifting of heme-coordinating group in imidazolylmethylxanthones leading to improved selective inhibition of CYP11B1” (Eur J Med Chem, 2017) come the findings set out here.

Assay [1] addresses T1, Cytochrome P450 11B1, mitochondrial (Homo sapiens, UniProt P15538).
T1 sequence (P15538 whole entry): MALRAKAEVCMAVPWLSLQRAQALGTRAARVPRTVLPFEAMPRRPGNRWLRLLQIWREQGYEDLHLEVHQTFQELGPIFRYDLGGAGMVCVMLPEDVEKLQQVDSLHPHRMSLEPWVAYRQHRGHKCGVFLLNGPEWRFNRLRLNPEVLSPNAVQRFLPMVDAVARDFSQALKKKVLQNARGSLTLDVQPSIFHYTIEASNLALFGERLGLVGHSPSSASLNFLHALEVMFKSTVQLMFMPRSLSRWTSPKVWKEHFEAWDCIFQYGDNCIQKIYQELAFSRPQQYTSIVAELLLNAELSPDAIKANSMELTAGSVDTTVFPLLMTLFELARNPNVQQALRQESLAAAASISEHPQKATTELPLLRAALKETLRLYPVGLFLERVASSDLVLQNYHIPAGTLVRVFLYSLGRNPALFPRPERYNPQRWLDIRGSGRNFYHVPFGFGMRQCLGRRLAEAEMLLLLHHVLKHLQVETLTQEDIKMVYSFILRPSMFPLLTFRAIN
Description: Inhibition of human CYP11B1 expressed in hamster V79MZh cells using [1,2-3H]-11-deoxycorticosterone as substrate after 6 hrs by HPTLC analysis. It counts as cell-based.

The species entered for another assay is Homo sapiens. Description: Selectivity index, ratio of IC50 for human CYP11B2 to IC50 for human CYP11B1.
The target of assay [2] is T2, Cytochrome P450 11B2, mitochondrial (Homo sapiens, UniProt P19099).
T2 sequence (P19099 whole entry): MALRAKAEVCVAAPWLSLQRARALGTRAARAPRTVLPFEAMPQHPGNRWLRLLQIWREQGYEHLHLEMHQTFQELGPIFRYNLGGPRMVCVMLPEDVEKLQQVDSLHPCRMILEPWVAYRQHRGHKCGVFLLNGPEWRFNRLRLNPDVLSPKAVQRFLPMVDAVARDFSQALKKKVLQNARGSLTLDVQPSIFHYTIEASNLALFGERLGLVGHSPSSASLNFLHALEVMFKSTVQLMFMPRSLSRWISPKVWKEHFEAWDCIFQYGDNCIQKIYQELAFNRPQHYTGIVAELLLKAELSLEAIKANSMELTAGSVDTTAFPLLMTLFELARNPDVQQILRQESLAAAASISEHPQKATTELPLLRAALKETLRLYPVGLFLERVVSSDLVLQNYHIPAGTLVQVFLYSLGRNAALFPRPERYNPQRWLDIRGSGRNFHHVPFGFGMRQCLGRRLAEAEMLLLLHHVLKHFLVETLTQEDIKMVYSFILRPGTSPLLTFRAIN
Description: Inhibition of human CYP11B2 expressed in hamster V79MZh cells using [1,2-3H]-11-deoxycorticosterone as substrate after 30 mins by HPTLC analysis. It counts as cell-based.

With `O=c1c2ccc(Br)cc2oc2cc(Cn3ccnc3)ccc12`, the IC50 (as a rule, the concentration that gives 50% inhibition) was 11.4 nM in assay [1] and 44.4 nM in assay [2]. Besides, the Ratio IC50 in the assay filed under Homo sapiens was determined as 3.9.
In the case of `O=c1c2ccc(Cn3ccnc3)cc2oc2cc([N+](=O)[O-])ccc12`, the IC50 in assay [1] came out at 19.2 nM; in assay [2], 135 nM. For the same molecule, the Ratio IC50 in the assay listed under Homo sapiens is 7.
On the same counts, the results for `O=c1c2ccc(Cn3ccnc3)cc2oc2cc(Oc3ccccc3)ccc12` are 6.5 nM, 26.2 nM and 4.
In the case of `O=c1c2ccccc2oc2cc(Cn3ccnc3)ccc12`, the IC50 in assay [1] was found to be 70.8 nM; in assay [2] it was 344 nM. For the same molecule, the Ratio IC50 in the assay filed under Homo sapiens came out at 4.8.
For `O=c1c2ccccc2oc2cccc(Cn3ccnc3)c12`, in that order: 99.1 nM, 114 nM and 1.2.
On the same counts, the results for `O=c1c2ccccc2oc2ccc(Cn3ccnc3)cc12` are 463 nM, 1140 nM and 2.5.
On the same counts, the results for `O=c1c2ccccc2oc2c(Cn3ccnc3)cccc12` are 15.1 nM, 43.7 nM and 2.9.
For `CC(C)Oc1ccc2c(=O)c3ccc(Cn4ccnc4)cc3oc2c1`, the results for the IC50 in assay [1] and in assay [2] were 4.1 nM and 16.6 nM, respectively. The Ratio IC50 in the assay filed under Homo sapiens came out at 4.
On the same counts, the results for `O=c1c2ccc(Cl)cc2oc2cc(Cn3ccnc3)ccc12` are 6.6 nM, 95.3 nM and 14.4.
For `O=c1c2ccc(F)cc2oc2cc(Cn3ccnc3)ccc12`, in that order: 12.3 nM, 82 nM and 6.7.
With `O=c1c2ccc(Cn3ccnc3)cc2oc2cc(OC3CCCC3)ccc12`, the results for the IC50 in assay [1] and in assay [2] were 5.8 nM and 20.3 nM, respectively. Moreover, in the assay listed under Homo sapiens, the Ratio IC50 stood at 3.5.
For `O=c1c2ccc(Cn3ccnc3)cc2oc2cc(OCC3CC3)ccc12`, the half-maximal inhibitory concentration (IC50) in assay [1] was found to be 4.7 nM; in assay [2], 22.3 nM. For the same molecule, the Ratio IC50 in the assay listed under Homo sapiens came out at 4.7.
In the case of `COc1ccc2c(=O)c3ccc(Cn4ccnc4)cc3oc2c1`, the IC50 in assay [1] was determined as 15.4 nM; in assay [2], 45.4 nM. Moreover, in the assay listed under Homo sapiens, the Ratio IC50 amounted to 2.9.
